In patent US11696913B2, “Prolonged ectoparasite-controlling agent for animal” (MITSUI CHEMICALS AGRO, INC., priority 2017, dated 2023):
Like-named read-outs stand apart in the source and are kept apart here.

What was measured:
[1] = tested on: Ctenocephalides felis; test: Systemic treatment in-vivo test with cat flea on rats; settings: intraperitoneal injection, 5 mg/kg; for inhibition in vivo at 5 mg/kg: Ctenocephalides felis, ip
Procedure: Systemic Treatment In-Vivo Test with American Dog Tick Nymph and Cat Flea on Rats
Type of study and overall study design: The method is a randomized non-blinded efficacy study in accordance with European animal welfare requirements. Rats (Rattus norvegicus) were randomized based on pre-treatment flea counts. The efficacy of treatment was determined by comparison of the flea and tick counts of different treatment groups versus the placebo-treated control group. The experimental unit was the individual study animal. Method and route of administration: The compound was applied in a suitable solvent and carrier (more specifically, added to glycerol formal; in case of poorly soluble compounds, a solvent mixture with up to 25% by volume of N-methyl pyrrolidone may be used.) considering the individual body weight as an intraperitoneal injection.
Experimental infestation: On the day of treatment and weekly thereafter, 30 ticks (D. variabilis nymphs) were released onto the back of each rat, and 30 fleas (C. felis) were released onto the back of each rat 24 h later.
Tick and Flea counting: Rats were thoroughly examined and ticks and fleas were manually removed 48 h (±4 h) after tick infestation and 24 h after flea infestation. Live fleas and live attached engorged ticks were counted. In non-evident cases, engorgement status was evaluated by squeezing the tick on a filter paper to find traces of blood as sign for engorgement.

[2] = tested on: Ctenocephalides felis; test: In vitro contact test with fleas; settings: read-out: insecticidal activity; for pest or weed control at 1 µg/cm2, 1 µg/cm2: dose 1 μg/cm^2, dead or moribund fleas after 48 h; for pest or weed control at 0.04 µg/cm2, 0.04 µg/cm2: dose 0.04 μg/cm^2, dead or moribund fleas after 48 h; for pest or weed control at 0.2 µg/cm2, 0.2 µg/cm2: dose 0.2 μg/cm^2, dead or moribund fleas after 48 h
Procedure, shortened: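 Activity is the percentage of fleas dead or moribund at 48 h, judged by immobility or uncoordinated movement after tapping. Tubes were coated by evaporating acetone solutions (900 ppm gives 5 μg/cm^2), then held 5-10 adult fleas of both sexes at room temperature and ambient humidity.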

[3] = tested on: Rhipicephalus (Boophilus) microplus; test: In vitro injection test with Rhipicephalus (Boophilus) microplus (BOOPMI Inj); settings: 168 h, laid fertile eggs after 7 days, read-out: acaricidal activity; for pest or weed control at 0.00016 mg: dose 0.16 μg/animal injected; for pest or weed control at 0.0008 mg: dose 0.8 μg/animal injected
Procedure, shortened: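 Five engorged adult females each get a 1 μl abdominal injection of compound dissolved and diluted in DMSO. Kept 7 days at 28° C./85% rel. hum.; percent activity rates egg laying and egg fertility (0% all fertile, 100% none laid or infertile).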

[4] = tested on: Ctenocephalides felis; test: Ctenocephalides felis in-vitro feeding test with fleas (CTECFE oral); settings: 48 hours, read-out: insecticidal feeding activity; for pest or weed control at 0.16 ppm: dose 0.16 ppm in citrated cattle blood; for pest or weed control at 0.8 ppm: dose 0.8 ppm in citrated cattle blood; for pest or weed control at 4 ppm: dose 4 ppm in citrated cattle blood; for pest or weed control at 0.032 ppm: dose 0.032 ppm in citrated cattle blood; for pest or weed control at 0.0064 ppm: dose 0.0064 ppm in citrated cattle blood
Procedure, shortened: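 Scored as percent fleas killed (0–100%) 48 hours after feeding began. Compound, dissolved in DMSO and diluted into citrated cattle blood, was offered via a parafilm membrane to roughly 20 adult male and female C. felis at about 37° C.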

[5] = tested on: Plutella xylostella; test: Insecticidal testing against diamondback moth; format: in vivo; settings: foliar, 144 h, concentration 100 ppm, cabbage leaf dip, third-stage larvae, after 6 days, read-out: pesticidal rate
Description: Insecticidal Testing Against Diamondback Moth (Plutella xylostella)

[6] = tested on: Spodoptera litura; test: Insecticidal testing against common cutworm; format: in vivo; settings: foliar, 144 h, concentration 100 ppm, cabbage leaf dip, second-stage larvae, after 6 days, read-out: pesticidal rate
Description: Insecticidal Testing Against Common Cutworm (Spodoptera litura)

[7] = tested on: Laodelphax striatellus; test: Insecticidal testing against small brown planthopper; format: in vivo; settings: 144 h, concentration 100 ppm, sprayed rice seedlings, after 6 days, read-out: pesticidal rate
Procedure: Insecticidal Testing Against Small Brown Planthopper (Laodelphax striatellus)
An additional test was carried out with 10 small brown planthoppers by preparing an acetone solution of the testing compound diluted to a predetermined concentration, spraying the solution onto rice seedlings and air drying the rice seedlings. The medicament was all used as received. The rice seedlings were placed in a constant-temperature room at 25° C., and the survival rate was investigated after 6 days. The test was carried out by means of one group of 10 pests.

Structure (SMILES) | pest or weed control at 1 µg/cm2, 1 µg/cm2 [2] [%] | pest or weed control at 0.00016 mg [3] [%] | pest or weed control at 0.0008 mg [3] [%] | pest or weed control at 0.16 ppm [4] [%] | pest or weed control at 0.8 ppm [4] [%] | pest or weed control at 4 ppm [4] [%] | pest or weed control at 100 ppm [5] [%] | pest or weed control at 100 ppm [6] [%] | pest or weed control at 0.2 µg/cm2, 0.2 µg/cm2 [2] [%] | pest or weed control at 100 ppm [7] [%] | other results
Cc1cc(C2=NOC(c3cc(Cl)cc(Cl)c3)(C(F)(F)F)C2)ccc1C(=O)NCC(=O)NCC(F)(F)F (stereo not shown) [Fluralaner, fluralaner, reference compound] |  |  |  |  |  |  |  |  |  |  | Geometric mean percent reduction in live flea (Ctenocephalides felis) counts compared to untreated control rats ([1]; SD 2): 100%; Geometric mean percent reduction in live flea (Ctenocephalides felis) counts compared to untreated control rats ([1]; SD 9): 100%; Geometric mean percent reduction in live flea (Ctenocephalides felis) counts compared to untreated control rats ([1]; SD 16): 51%; Geometric mean percent reduction in live flea (Ctenocephalides felis) counts compared to untreated control rats ([1]; SD 23): 7%
CN(C(=O)c1ccc(C(N)=O)cc1)c1cccc(C(=O)Nc2c(I)cc(C(F)(C(F)(F)F)C(F)(F)F)cc2C(F)(F)F)c1F [Compound 48] | 95 | 100 | 100 | 95 | 95 | 95 | ≥ 70 | ≥ 70 |  |  | 
O=C(Nc1cccc(C(=O)Nc2c(I)cc(C(F)(C(F)(F)F)C(F)(F)F)cc2C(F)(F)F)c1F)c1ccc(C(F)(F)F)nc1C(F)(F)F [Compound 112] |  |  | 100 | 95 | 95 | 95 | ≥ 70 | ≥ 70 |  |  | 
CN(C(=O)c1ccc(F)cc1)c1cc(C(=O)Nc2c(Cl)cc(C(F)(C(F)(F)F)C(F)(F)F)cc2C(F)(F)F)ccc1F [Compound 83] | 95 | 100 | 100 | 95 | 95 | 95 | ≥ 70 | ≥ 70 | 95 | ≥ 70 | pest or weed control at 0.04 µg/cm2, 0.04 µg/cm2 [2]: 95%; pest or weed control at 0.032 ppm [4]: 95%
CCN(C(=O)c1ccc(F)cc1)c1cccc(C(=O)Nc2c(I)cc(C(F)(C(F)(F)F)C(F)(F)F)cc2C(F)(F)F)c1F [Compound 43] |  |  |  |  |  |  |  |  |  |  | inhibition in vivo at 5 mg/kg ([1]; SD 2, read-out: Geometric mean percent reduction in live flea (Ctenocephalides felis) counts compared to untreated control rats): 100%; inhibition in vivo at 5 mg/kg ([1]; SD 9, read-out: Geometric mean percent reduction in live flea (Ctenocephalides felis) counts compared to untreated control rats): 99%; inhibition in vivo at 5 mg/kg ([1]; SD 16, read-out: Geometric mean percent reduction in live flea (Ctenocephalides felis) counts compared to untreated control rats): 90%; inhibition in vivo at 5 mg/kg ([1]; SD 23, read-out: Geometric mean percent reduction in live flea (Ctenocephalides felis) counts compared to untreated control rats): 91%; inhibition in vivo at 5 mg/kg ([1]; SD 30, read-out: Geometric mean percent reduction in live flea (Ctenocephalides felis) counts compared to untreated control rats): 13%
COc1ccc(C(=O)N(C)c2cccc(C(=O)Nc3c(I)cc(C(F)(C(F)(F)F)C(F)(F)F)cc3C(F)(F)F)c2F)cc1OC [Compound 50] |  |  |  |  |  | 95 | ≥ 70 | ≥ 70 |  |  | 
CN(C(=O)c1ccc(S(N)(=O)=O)cc1)c1cccc(C(=O)Nc2c(I)cc(C(F)(C(F)(F)F)C(F)(F)F)cc2C(F)(F)F)c1F [Compound 45] |  | 100 | 100 | 95 | 95 | 95 | ≥ 70 | ≥ 70 |  |  | 
CN(C(=O)c1ccc(C(F)(F)F)nc1C(F)(F)F)c1cccc(C(=O)Nc2c(I)cc(C(F)(C(F)(F)F)C(F)(F)F)cc2C(F)(F)F)c1F [Compound 111] | 95 | 100 | 100 | 95 | 95 | 95 | ≥ 70 | ≥ 70 | 95 |  | pest or weed control at 0.04 µg/cm2, 0.04 µg/cm2 [2]: 95%; pest or weed control at 0.0064 ppm [4]: 95%; pest or weed control at 0.032 ppm [4]: 95%
CN(C(=O)c1ccc(OC(F)(F)F)cc1)c1cccc(C(=O)Nc2c(I)cc(C(F)(C(F)(F)F)C(F)(F)F)cc2C(F)(F)F)c1F [Compound 61] | 95 | 100 | 100 |  | 95 | 95 | ≥ 70 | ≥ 70 | 95 | ≥ 70 | 
CN(C(=O)c1ccc2c(c1)CCCC2)c1cccc(C(=O)Nc2c(I)cc(C(F)(C(F)(F)F)C(F)(F)F)cc2C(F)(F)F)c1F [Compound 52] | 95 |  | 100 |  |  | 95 | ≥ 70 | ≥ 70 |  |  | 
CN(C(=O)c1cnc(C(F)(F)F)nc1)c1cccc(C(=O)Nc2c(I)cc(C(F)(C(F)(F)F)C(F)(F)F)cc2C(F)(F)F)c1F [Compound 113] |  | 100 | 100 | 95 | 95 | 95 | ≥ 70 | ≥ 70 |  | ≥ 70 | pest or weed control at 32 ng ([3]; dose 0.032 μg/animal injected): 100%; pest or weed control at 0.032 ppm [4]: 95%
CN(C(=O)c1ccc2c(c1)OCO2)c1cccc(C(=O)Nc2c(I)cc(C(F)(C(F)(F)F)C(F)(F)F)cc2C(F)(F)F)c1F [Compound 55] | 95 |  |  |  |  | 95 | ≥ 70 | ≥ 70 | 95 |  | 
CC(C)c1ccc(C(=O)N(C)c2cccc(C(=O)Nc3c(I)cc(C(F)(C(F)(F)F)C(F)(F)F)cc3C(F)(F)F)c2F)cc1 [Compound 47] | 95 |  | 100 |  |  | 95 | ≥ 70 | ≥ 70 | 95 | ≥ 70 | 
O=C(Nc1cccc(C(=O)Nc2c(I)cc(C(F)(C(F)(F)F)C(F)(F)F)cc2C(F)(F)F)c1F)c1cnc(C(F)(F)F)nc1 [Compound 114] |  |  | 100 | 95 | 95 | 95 | ≥ 70 | ≥ 70 |  |  | 
CN(C(=O)c1ccc(S(C)(=O)=O)cc1)c1cccc(C(=O)Nc2c(I)cc(C(F)(C(F)(F)F)C(F)(F)F)cc2C(F)(F)F)c1F [Compound 49] | 95 | 100 | 100 | 95 | 95 | 95 | ≥ 70 | ≥ 70 | 95 | ≥ 70 | pest or weed control at 0.04 µg/cm2, 0.04 µg/cm2 [2]: 95%; pest or weed control at 0.0064 ppm [4]: 95%; pest or weed control at 0.032 ppm [4]: 95%
